Reference: PMC2680759, “Non-Invasive Molecular Imaging of Fibrosis Using a Collagen-Targeted Peptidomimetic of the Platelet Collagen Receptor Glycoprotein VI” (PLoS ONE, 2009)
Bridges are numbered along the chain shown (N, C = ends). Where no end group is shown, it is not given here.

Legend:
[1] = test system: 9O12.2 IgG; experiment: SPR, 9O12.2 IgG injected over immobilized B-collagelin; assay type: binding; details: SPR, peptide reduced by DTT on the sensorchip, IgG 8 µg/ml
Procedure: (§1) 9O12.2 IgG was injected over biotin-peptides coupled to an SA-sensorchip in a Biacore 2000 instrument. […] In some experiments, the peptide was reduced by DTT on the sensor chip before the IgG was injected. Competition experiments were performed by mixing the IgG with recombinant soluble GPVI (25 µg.mL^−1). Collagen binding to the peptide was analyzed by injecting type-I collagen (200 µg.mL^−1) onto the peptide-coated sensorchip. Conversely, biotin-peptides (125, 250, 500 and 1000 µg.mL^−1) were perfused over fibrillar collagen immobilized on a CM5-sensorchip.

[2] = test system: platelet function; experiment: Effect on platelet function; details: stated in discussion, no method given
[3] = test system: collagen rich lesions of fibrotic lungs; experiment: Histochemical analysis of healthy and fibrotic lung sections; design: species or system mouse; details: paraffin embedded lung sections of bleomycin-treated mice, HRP-coupled streptavidin
Procedure: Figure 6 Imaging of lung fibrosis. A: Paraffin embedded sections of lungs from a bleomycin-treated mice were incubated with B-collagelin and detected using HRP-coupled streptavidin. Sections were counter-stained with hematoxylin. Contiguous serial sections were stained with picrosirius red. Representative images are shown. B: Whole body planar scintigraphy of a bleomycin-treated mouse (left) and a control mouse (right). Representative images acquired one hour after the injection of 99mTc-collagelin are shown. C: Corresponding lung autoradiography and histology (picrosirius staining) showing the colocalisation of 99mTc-collagelin with fibrosis. D: Lung autoradiogaphy and histology from a mice treated with the control 99mTc-Pc.

[4] = test system: collagen in sections of rat aorta and tail tendon; experiment: Histochemical analysis of rat aorta and tail tendon sections; details: frozen sections of rat aorta and tail tendon, biotin-peptide 200 µg/mL, HRP-coupled streptavidin
Procedure: Sections were counter-stained with hematoxylin-eosin (Merck). Collagen was stained using picrosirius red. Sections ([…]) of rat tail tendon were processed as above.

[5] = target: fibrillar type I collagen (Homo sapiens, UniProt P02452+P08123); experiment: SPR, biotin-peptides perfused over collagen-coated sensorchip; assay type: binding; details: fibrillar type I collagen on CM5-sensorchip
Procedure: as §1

Sequence of fibrillar type I collagen (P02452 162-1218 limits assumed): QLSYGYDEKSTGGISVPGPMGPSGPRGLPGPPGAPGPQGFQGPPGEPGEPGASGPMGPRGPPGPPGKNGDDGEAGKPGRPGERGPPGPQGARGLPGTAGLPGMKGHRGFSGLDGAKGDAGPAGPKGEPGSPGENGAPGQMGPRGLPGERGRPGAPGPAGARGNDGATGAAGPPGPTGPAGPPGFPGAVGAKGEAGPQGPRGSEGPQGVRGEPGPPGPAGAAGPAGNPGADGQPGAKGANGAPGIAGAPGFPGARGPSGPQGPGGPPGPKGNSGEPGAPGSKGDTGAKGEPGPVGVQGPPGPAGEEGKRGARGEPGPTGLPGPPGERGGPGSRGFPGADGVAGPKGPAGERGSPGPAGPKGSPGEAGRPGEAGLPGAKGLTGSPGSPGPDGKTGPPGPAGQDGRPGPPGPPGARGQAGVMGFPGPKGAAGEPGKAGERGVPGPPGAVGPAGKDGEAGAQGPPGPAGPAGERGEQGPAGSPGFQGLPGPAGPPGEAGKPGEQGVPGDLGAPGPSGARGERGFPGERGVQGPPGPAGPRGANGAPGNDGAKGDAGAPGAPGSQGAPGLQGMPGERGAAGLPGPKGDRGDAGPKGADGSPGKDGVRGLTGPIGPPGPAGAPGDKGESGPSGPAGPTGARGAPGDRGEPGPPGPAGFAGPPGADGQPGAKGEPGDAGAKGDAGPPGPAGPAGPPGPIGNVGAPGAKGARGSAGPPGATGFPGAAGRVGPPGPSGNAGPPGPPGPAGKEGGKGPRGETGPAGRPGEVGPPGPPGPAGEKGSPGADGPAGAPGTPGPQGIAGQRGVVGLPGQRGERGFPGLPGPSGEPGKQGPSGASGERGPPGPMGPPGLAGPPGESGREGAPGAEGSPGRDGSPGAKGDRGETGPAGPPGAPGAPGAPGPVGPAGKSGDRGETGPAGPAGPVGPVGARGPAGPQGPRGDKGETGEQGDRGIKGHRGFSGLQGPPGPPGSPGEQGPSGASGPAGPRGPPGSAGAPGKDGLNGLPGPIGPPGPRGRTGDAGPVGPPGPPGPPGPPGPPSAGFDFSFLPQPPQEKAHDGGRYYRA
Sequence of fibrillar type I collagen (P08123 80-1119 limits assumed): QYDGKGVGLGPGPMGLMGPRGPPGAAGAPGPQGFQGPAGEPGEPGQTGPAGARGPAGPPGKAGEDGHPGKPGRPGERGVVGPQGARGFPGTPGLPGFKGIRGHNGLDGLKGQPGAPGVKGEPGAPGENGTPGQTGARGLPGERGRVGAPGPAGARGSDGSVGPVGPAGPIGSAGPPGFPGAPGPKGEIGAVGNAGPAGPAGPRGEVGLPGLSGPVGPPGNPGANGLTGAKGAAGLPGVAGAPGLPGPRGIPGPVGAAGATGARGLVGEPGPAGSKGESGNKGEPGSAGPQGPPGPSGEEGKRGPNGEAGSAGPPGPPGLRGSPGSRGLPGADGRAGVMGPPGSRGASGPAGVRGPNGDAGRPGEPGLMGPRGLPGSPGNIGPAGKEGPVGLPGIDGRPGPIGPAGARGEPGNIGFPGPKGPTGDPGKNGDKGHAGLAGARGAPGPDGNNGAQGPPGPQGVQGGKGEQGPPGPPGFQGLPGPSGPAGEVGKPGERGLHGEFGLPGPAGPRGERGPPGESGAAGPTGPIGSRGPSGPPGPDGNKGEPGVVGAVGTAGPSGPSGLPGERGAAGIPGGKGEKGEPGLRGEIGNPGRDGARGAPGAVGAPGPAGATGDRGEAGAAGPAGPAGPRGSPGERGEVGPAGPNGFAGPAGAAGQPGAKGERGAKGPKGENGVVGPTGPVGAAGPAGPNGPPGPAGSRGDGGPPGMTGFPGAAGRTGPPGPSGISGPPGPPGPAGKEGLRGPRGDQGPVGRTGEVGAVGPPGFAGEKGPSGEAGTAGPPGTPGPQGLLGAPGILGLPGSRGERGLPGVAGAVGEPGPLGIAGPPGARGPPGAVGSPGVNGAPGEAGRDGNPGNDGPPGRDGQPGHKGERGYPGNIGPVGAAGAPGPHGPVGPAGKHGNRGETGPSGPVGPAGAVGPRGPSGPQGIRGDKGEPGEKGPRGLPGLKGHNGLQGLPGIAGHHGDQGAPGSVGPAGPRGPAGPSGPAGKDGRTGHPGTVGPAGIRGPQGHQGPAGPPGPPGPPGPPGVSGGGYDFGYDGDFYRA

Compound	Binding of 9O12.2 IgG to reduced collagelin [1]	Effect on platelet function [2]	Histochemical staining of lung sections [3]	Histochemical staining of tissue collagen [4]	Binding to collagen-coated sensorchip [5]
CSCC[C@@H]1NC(=O)[C@H](C(C)C)NC(=O)[C@H](CCCNC(=N)N)NC(=O)CNC(=O)[C@@H]2CCCN2C(=O)[C@@H](NC(=O)CNC(=O)[C@H](CO)NC(=O)CNC(=O)[C@H](CO)NC(=O)CCCC[C@@H]2SC[C@@H]3NC(=O)N[C@@H]32)CSSC[C@@H](C(N)=O)NC(=O)[C@@H]2CCCN2C(=O)CNC(=O)[C@H](CCC(=O)O)NC(=O)[C@H](CC(=O)O)NC(=O)[C@H](CC(=O)O)NC(=O)CNC(=O)[C@H](CC(C)C)NC(=O)[C@H](Cc2c[nH]cn2)NC(=O)[C@H](CC(C)C)NC(=O)CNC(=O)[C@H](Cc2c[nH]cn2)NC1=O [collagelin]	did not bind	no effect	coincided with the collagen rich lesions		
SGSGCGPQGARGLTGASAGGPC (disulfide 5-22 (inferred)) [reference compound]				not	did not bind
